Data published in publication PMC10950963, “Anti-leishmanial activity of Eleutherine plicata Herb. and predictions of isoeleutherin and its analogues” (Frontiers in Chemistry, 2024).
≈ marks a conversion by molar mass, not a printed value. Entries after “also recorded” stand apart in the source; their conditions may differ. Read-outs that look alike come from different tables or passages of the source.

What was measured:
[1] = system: amastigotes of L. donovani; conditions: ref Kaiser et al., 2000; cited from earlier work
[2] = Cytotoxicity to macrophages; format: cell-based, mice; conditions: BALB/c, mouse, peritoneal macrophages
[3] = compared with EEEp and FDCMEp, ref Albuquerque et al., 2023, cited from earlier work
[4] = system: HepG2; set-up: method as in Gomes et al., 2021; conditions: exposure for 24 h, compared with EEEp and FDMEp; ref Gomes et al., 2021; cited from earlier work
[5] = system: Th cells; set-up: method as in Hong et al., 2008; conditions: ref Hong et al., 2008; cited from earlier work
[6] = system: peritoneal macrophages from BALB/c mice; test: Cytotoxicity to macrophages; format: cell-based; conditions: peritoneal macrophages from BALB/c mice
[7] = system: Plasmodium falciparum sensitive to chloroquine; set-up: method as in Vale et al., 2020; conditions: ref Vale et al., 2020; cited from earlier work
[8] = system: intracellular amastigote forms of L. amazonensis; test: Anti-amastigote assay in infected murine macrophages (Giemsa count); format: cell-based, Leishmania amazonensis; conditions: 500, 250 and 125 μg/mL, 72 h
Procedure: Murine macrophages (4 × 10^5 cells) were seeded on round glass coverslips into 24-well culture plates (Nunc) in RPMI 1640 medium (Sigma and Aldrich), supplemented with 20% fetal bovine serum (FBS), 2 mM L-glutamine, penicillin 50 IU/mL, and streptomycin 50 μg/mL, pH 7.4. After 24 h of incubation at 35°C in 5% CO2, promastigotes of L. amazonensis in stationary phase were added to the wells (4 × 10^6 parasites) to promote infection of macrophages, and the cultures were incubated for 4 h at 35°C in 5% CO2. Next, the free parasites were removed by extensive washing with RPMI 1640 medium, and the infected macrophages were quantified and treated with the extract, FA2, FA3, fraction FA4, and isoeleutherin (500–125 μg/mL, each) for 72 h at 35°C in 5% CO2. The negative control consisted of infected macrophages and culture medium. The positive control used AmpB (100–25 μg/mL). Then, coverslips were stained with Giemsa, and the percentage of inhibition of intramacrophage viability of Leishmania was determined by counting the number of amastigotes per 100 macrophages on each coverslip, under a light microscope (×100 magnification). The presented data were performed in triplicate, and the IC50 was determined using GraphPad Prism version 5.04 ([Silva, 2005]).

[9] = system: promastigotes of L. amazonensis; test: Inhibition of growth/viability of L. amazonensis promastigotes (MTT); format: cell-based; conditions: Leishmania amazonensis
Procedure: Inhibition of Leishmania growth was evaluated in vitro by cultivating promastigotes of L. amazonensis in stationary phase (5×10^6 parasites) in the presence of the extract, fractions and isoeleutherin (200–3.125 μg/mL) in 96-well culture plates (Nunc, Nunclon®, Roskilde, Denmark), for 72 h at 26°C. Viability was assessed by measuring the cleavage of MTT [3-(4,5-dimethylthiazol-2-yl)-2,5-diphenyl tetrazolium bromide] (Sigma) ([Ngure et al., 2009]). Absorbances were measured using a multiwell scanning spectrophotometer (Molecular Devices, Spectra Max Plus, Canada) at 490 nm. Amphotericin B (AmpB) was used as a positive control (25–0.3906 μg/mL). The concentration of products required to inhibit 50% of the viability of L. amazonensis (IC50) was determined by applying a sigmoidal regression of the individual concentration response curves of the compounds. The data are representative of independent experiments, carried out in triplicate, which presented similar results ([Mota et al., 2011]).

[10] = system: amastigotes of L. amazonensis; set-up: method as in Cunha-Junior et al., 2011; conditions: ref Cunha-Junior et al., 2011; cited from earlier work
[11] = system: Allium cepa; set-up: method as in Castro et al., 2021a; conditions: Allium cepa model, 12.5 μg/mL in 72 h; ref Castro et al., 2021a; cited from earlier work

O=C1C=C(C2=CC(=O)c3cccc(O)c3C2=O)C(=O)c2c(O)cccc21 [3,3-Bijuglone]
IC50 for amastigotes of L. donovani [1]: 15 µg/mL

CC1=C(C2=C(C)C(=O)c3ccc(OCc4ccccc4)c(O)c3C2=O)C(=O)c2c(ccc(OCc3ccccc3)c2O)C1=O [6,6-Dibenzyloxy-3,3-bi-plumbagin]
IC50 for amastigotes of L. donovani [1]: 14.2 µg/mL

C[C@@H]1[C@H](O)[C@@H](C)/C=C/C=C/C=C/C=C/C=C/C=C/C=C/[C@H](O[C@@H]2O[C@H](C)[C@@H](O)[C@H](N)[C@@H]2O)C[C@@H]2O[C@](O)(C[C@@H](O)C[C@@H](O)[C@H](O)CC[C@@H](O)C[C@@H](O)CC(=O)O[C@H]1C)C[C@H](O)[C@H]2C(=O)O [Amphotericin B, reference compound]
CC50 [2]: > 100 µg/mL

COc1cccc2c1C(=O)C1=C(C[C@@H](C)O[C@@H]1C)C2=O [Isoeleutherin, isoeleutherin]
genotoxicity / cytotoxicity in the micronucleus test [3]: lowest cytotoxicity
genotoxicity / cytotoxicity in the micronucleus test ([3]; listed as is eleutherin): less genotoxic
cytotoxicity in HepG2 [4]: the least toxic sample
effect on cytokine production of Th cells [5]: selectively stimulating IFNc production
cytotoxicity on macrophages (in words) [6]: did not show cytotoxicity; also recorded: no cytotoxicity
CC50 [2]: > 500 µg/mL
activity in Plasmodium falciparum [7]: active
anti-amastigote activity (number of amastigotes in infected macrophages vs negative control) [8]: No reductions in the number of amastigotes; also recorded: inactive
IC50 ([9]; parasite form not given, sentence on selectivity index, read-out: IC50 against L. amazonensis): > 200 µg/mL
IC50 ([9]; promastigotes, 72 h at 26°C, MTT, read-out: IC50 against promastigote form of L. amazonensis): 25 µg/mL (≈ 91.8 µM)

O=C1C2=C(C(=O)c3ccccc31)[C@H]1Oc3ccccc3[C@H]1CO2 [LQB-118]
reduction in the number of amastigotes of L. amazonensis [10]: concentration-dependent reduction

COc1cccc2c1C(=O)C1=C(C[C@H](C)O[C@@H]1C)C2=O [eleutherin]
percentage of chromosomal aberrations [11]: higher percentage of chromosomal aberrations than isoeleutherin

Cc1cc(=O)c2c(C)cc3cc(O)cc(O)c3c2o1 [eleutherinol, reference compound]
effect on cytokine production of Th cells [5]: inhibited the production of IFNc and IL-2
